System: CHO cells
Experiment: Voltage dependent quenching of WGA-F1 fluorescence in response to changes in the potassium diffusion potential
Type: cell-based, Chinese hamster
Conditions: excitation 475 nm
Method: Crystal violet was purchased from Fischer Scientific. Fluorescein labeled wheat germ agglutinin (WGA-F1) was purchased from Sigma Chemical. Valinomycin was purchased from Sigma Chemical Chinese hamster ovary cells (CHO) were grown in Ham's F12 media (Irvine Scientific) with 10% fetal bovine serum and 1% penicillin/streptomycin. Adherent cells were harvested using phosphate buffered saline with 0.5 mM EDTA (Irvine Scientific). Cells were washed in Hank's buffered saline solution (HBSS) containing 20 mM Hepes at pH 7.2. Cells suspended in HBSS at a concentration of 10^6 cells/ml were stained with 2 μg/ml WGA-F1 and 40 nM crystal violet for 15 minutes at room temperature. The cells were washed with HBSS and suspended in HBSS containing 1 μM sulforhodamine 101 (Sigma Chemical). Sulforhodamine 101 was used as a voltage insensitive volume marker to account for possible dilution artifacts. […] Fluorescence measurements on cell suspensions were made at room temperature using a FluoroMax-2 fluorometer (Spex). […]
The cationic quencher will redistribute from the intracellular side of the plasma membrane to the extracellular side as the cell is depolarized. […] The fluorescein fluorescence in the depolarized cells is decreased by 20% compared to the hyperpolarized cells. No difference is seen in sulforhodamine 101 fluorescence.
Octadecyl rhodamine B (R18) was purchased from Molecular Probes. […] Fluorescence measurements on cell suspensions were made at room temperature using a FluoroMax-2 fluorometer (Spex). […]
The cationic quencher redistributes from the intracellular side of the plasma membrane to the extracellular side as the cell is depolarized. […] The fluorescein fluorescence in the depolarized cells is decreased by 3% and the rhodamine fluorescence is increased by 2% compared to the hyperpolarized cells. The observed changes in fluorescein and R18 fluorescence are consistent with the translocation-dependent changes in fluorescence resonance energy transfer.

[1] = CHO cells stained with 2 μg/ml WGA-F1 and 500 nM R18, high potassium vs high sodium buffer, valinomycin

SMILES	decrease of fluorescein fluorescence in the depolarized cells compared to the hyperpolarized cells [1]	increase of rhodamine fluorescence (sensitized emission) in the depolarized cells compared to the hyperpolarized cells [1]	decrease of fluorescein fluorescence in the depolarized cells compared to the hyperpolarized cells (CHO cells stained with 2 μg/ml WGA-F1 and 40 nM crystal violet, high potassium buffer (126 mM K+) vs high sodium buffer (6 mM K+), 5 μM valinomycin)
CCCCCCCCCCCCCCCCCCOC(=O)c1ccccc1-c1c2ccc(=[N+](CC)CC)cc-2oc2cc(N(CC)CC)ccc12.[Cl-] [R18, Octadecyl rhodamine B]	3%	2%	
CN(C)c1ccc(C(=C2C=CC(=[N+](C)C)C=C2)c2ccc(N(C)C)cc2)cc1 [crystal violet]			20%
